“And” between values parts separate entries of the source, which are not always exact repeats. Identical values can stand only once.
How the values were obtained:
[1] = 100 kPa, Liquid; for viscosity: Concentric cylinders viscometry; for mass density: Vibrating tube method
[2] = xn = mol fraction of the nth substance listed; conditions: 100 kPa, Liquid; for viscosity: Concentric cylinders viscometry; for mass density: Vibrating tube method

CCCC[n+]1ccn(C)c1.O=S(=O)([N-]S(=O)(=O)C(F)(F)F)C(F)(F)F
[1]
Conditions | mass density | viscosity
283.15 K | 1451.8 kg/m3 | 106.78 mPa·s and 106.77 mPa·s
288.15 K | 1446.9 kg/m3 | 82.14 mPa·s and 82.16 mPa·s
293.15 K | 1442.1 kg/m3 | 66.36 mPa·s and 64.53 mPa·s
298.15 K | 1437.2 kg/m3 | 51.58 mPa·s and 51.6 mPa·s
303.15 K | 1432.4 kg/m3 | 41.94 mPa·s and 41.93 mPa·s
308.15 K | 1427.6 kg/m3 | 34.6 mPa·s and 34.59 mPa·s
313.15 K | 1422.8 kg/m3 and 1422.9 kg/m3 | 29.48 mPa·s and 28.91 mPa·s
318.15 K | 1418.1 kg/m3 and 1418.2 kg/m3 | 24.47 mPa·s and 24.46 mPa·s
323.15 K | 1413.4 kg/m3 and 1413.5 kg/m3 | 20.93 mPa·s and 20.91 mPa·s
328.15 K | 1408.7 kg/m3 and 1408.8 kg/m3 | 18.07 mPa·s and 18.05 mPa·s
333.15 K | 1404.1 kg/m3 and 1404 kg/m3 | 15.95 mPa·s and 15.72 mPa·s
338.15 K | 1399.4 kg/m3 and 1399.3 kg/m3 | 13.83 mPa·s and 13.8 mPa·s
343.15 K | 1394.8 kg/m3 and 1394.7 kg/m3 | 12.23 mPa·s and 12.2 mPa·s
348.15 K | 1390.2 kg/m3 and 1390.1 kg/m3 | 10.9 mPa·s and 10.86 mPa·s
353.15 K | 1385.6 kg/m3 and 1385.5 kg/m3 | 9.985 mPa·s and 9.72 mPa·s
358.15 K | 1381.1 kg/m3 and 1381 kg/m3 | 8.806 mPa·s and 8.754 mPa·s
363.15 K | 1376.6 kg/m3 and 1376.4 kg/m3 | 7.98 mPa·s and 7.926 mPa·s

CCCC[n+]1ccn(C)c1.O=S(=O)([N-]S(=O)(=O)C(F)(F)F)C(F)(F)F + CC(=O)[O-].CCCCn1cc[n+](C)c1
[2], x1 = 1
Conditions | mass density [kg/m3] | viscosity [mPa·s]
283.15 K | 1451.8 | 106.78
288.15 K | 1446.9 | 82.14
293.15 K | 1442.1 | 66.36
298.15 K | 1437.2 | 51.58
303.15 K | 1432.4 | 41.94
308.15 K | 1427.6 | 34.6
313.15 K | 1422.9 | 29.48
318.15 K | 1418.2 | 24.47
323.15 K | 1413.5 | 20.93
328.15 K | 1408.8 | 18.07
333.15 K | 1404.1 | 15.95
338.15 K | 1399.4 | 13.83
343.15 K | 1394.8 | 12.23
348.15 K | 1390.2 | 10.9
353.15 K | 1385.6 | 9.985
358.15 K | 1381.1 | 8.806
363.15 K | 1376.6 | 7.98

CCCC[n+]1ccn(C)c1.O=S(=O)([N-]S(=O)(=O)C(F)(F)F)C(F)(F)F + CCCCn1cc[n+](C)c1.COP(=O)([O-])OC
[2], x1 = 1
Conditions | mass density [kg/m3] | viscosity [mPa·s]
283.15 K | 1451.8 | 106.78
288.15 K | 1446.9 | 82.14
293.15 K | 1442.1 | 66.36
298.15 K | 1437.2 | 51.58
303.15 K | 1432.4 | 41.94
308.15 K | 1427.6 | 34.6
313.15 K | 1422.9 | 29.48
318.15 K | 1418.2 | 24.47
323.15 K | 1413.5 | 20.93
328.15 K | 1408.8 | 18.07
333.15 K | 1404.1 | 15.95
338.15 K | 1399.4 | 13.83
343.15 K | 1394.8 | 12.23
348.15 K | 1390.2 | 10.9
353.15 K | 1385.6 | 9.985
358.15 K | 1381.1 | 8.806
363.15 K | 1376.6 | 7.98

CCCC[n+]1ccn(C)c1.O=S(=O)([N-]S(=O)(=O)C(F)(F)F)C(F)(F)F + CCCCn1cc[n+](C)c1.F[P-](F)(F)(F)(F)F
[2], x1 = 1
Conditions | mass density [kg/m3] | viscosity [mPa·s]
283.15 K | 1451.8 | 106.77
288.15 K | 1446.9 | 82.16
293.15 K | 1442.1 | 64.53
298.15 K | 1437.2 | 51.6
303.15 K | 1432.4 | 41.93
308.15 K | 1427.6 | 34.59
313.15 K | 1422.8 | 28.91
318.15 K | 1418.1 | 24.46
323.15 K | 1413.4 | 20.91
328.15 K | 1408.7 | 18.05
333.15 K | 1404 | 15.72
338.15 K | 1399.3 | 13.8
343.15 K | 1394.7 | 12.2
348.15 K | 1390.1 | 10.86
353.15 K | 1385.5 | 9.72
358.15 K | 1381 | 8.754
363.15 K | 1376.4 | 7.926

CCCC[n+]1ccn(C)c1.O=S(=O)([N-]S(=O)(=O)C(F)(F)F)C(F)(F)F + CCCCn1cc[n+](C)c1.N#CN=C=[N-]
[2], x1 = 1
Conditions | mass density [kg/m3] | viscosity [mPa·s]
283.15 K | 1451.8 | 106.77
288.15 K | 1446.9 | 82.16
293.15 K | 1442.1 | 64.53
298.15 K | 1437.2 | 51.6
303.15 K | 1432.4 | 41.93
308.15 K | 1427.6 | 34.59
313.15 K | 1422.8 | 28.91
318.15 K | 1418.1 | 24.46
323.15 K | 1413.4 | 20.91
328.15 K | 1408.7 | 18.05
333.15 K | 1404 | 15.72
338.15 K | 1399.3 | 13.8
343.15 K | 1394.7 | 12.2
348.15 K | 1390.1 | 10.86
353.15 K | 1385.5 | 9.72
358.15 K | 1381 | 8.754
363.15 K | 1376.4 | 7.926

CCCC[n+]1ccn(C)c1.O=S(=O)([N-]S(=O)(=O)C(F)(F)F)C(F)(F)F + CCCCn1cc[n+](C)c1.N#C[S-]
[2], x1 = 1
Conditions | mass density [kg/m3] | viscosity [mPa·s]
283.15 K | 1451.8 | 106.78
288.15 K | 1446.9 | 82.14
293.15 K | 1442.1 | 66.36
298.15 K | 1437.2 | 51.58
303.15 K | 1432.4 | 41.94
308.15 K | 1427.6 | 34.6
313.15 K | 1422.9 | 29.48
318.15 K | 1418.2 | 24.47
323.15 K | 1413.5 | 20.93
328.15 K | 1408.8 | 18.07
333.15 K | 1404.1 | 15.95
338.15 K | 1399.4 | 13.83
343.15 K | 1394.8 | 12.23
348.15 K | 1390.2 | 10.9
353.15 K | 1385.6 | 9.985
358.15 K | 1381.1 | 8.806
363.15 K | 1376.6 | 7.98

CCCC[n+]1ccn(C)c1.O=S(=O)([N-]S(=O)(=O)C(F)(F)F)C(F)(F)F + CCCCn1cc[n+](C)c1.O=S(=O)([O-])C(F)(F)F
[2], x1 = 1
Conditions | mass density [kg/m3] | viscosity [mPa·s]
283.15 K | 1451.8 | 106.78
288.15 K | 1446.9 | 82.14
293.15 K | 1442.1 | 66.36
298.15 K | 1437.2 | 51.58
303.15 K | 1432.4 | 41.94
308.15 K | 1427.6 | 34.6
313.15 K | 1422.9 | 29.48
318.15 K | 1418.2 | 24.47
323.15 K | 1413.5 | 20.93
328.15 K | 1408.8 | 18.07
333.15 K | 1404.1 | 15.95
338.15 K | 1399.4 | 13.83
343.15 K | 1394.8 | 12.23
348.15 K | 1390.2 | 10.9
353.15 K | 1385.6 | 9.985
358.15 K | 1381.1 | 8.806
363.15 K | 1376.6 | 7.98

CCCCn1cc[n+](C)c1.COP(=O)([O-])OC [1-butyl-3-methyl-1H-imidazolium dimethylphosphate]
[1]
Conditions | mass density [kg/m3] | viscosity [mPa·s]
283.15 K | 1168.4 | 2315.6
288.15 K | 1164.9 | 1454.6
293.15 K | 1161.4 | 943.97
298.15 K | 1157.9 | 641.71
303.15 K | 1154.3 | 446.92
308.15 K | 1150.9 | 319.33
313.15 K | 1147.6 | 232.1
318.15 K | 1144.3 | 174.7
323.15 K | 1141 | 133.37
328.15 K | 1137.8 | 103.62
333.15 K | 1134.6 | 81.97
338.15 K | 1131.4 | 65.62
343.15 K | 1128.3 | 53.39
348.15 K | 1125.1 | 44.01
353.15 K | 1122 | 37.08
358.15 K | 1118.9 | 30.94
363.15 K | 1115.7 | 26.33

CC(=O)[O-].CCCCn1cc[n+](C)c1 [1-butyl-3-methylimidazolium acetate]
[1]
Conditions | mass density [kg/m3] | viscosity [mPa·s]
283.15 K | 1062.7 | 1013.4
288.15 K | 1059.4 | 645.6
293.15 K | 1056 | 421.35
298.15 K | 1052.8 | 292.57
303.15 K | 1049.7 | 206.68
308.15 K | 1046.6 | 150.08
313.15 K | 1043.5 | 110.79
318.15 K | 1040.5 | 85.03
323.15 K | 1037.5 | 66.07
328.15 K | 1034.5 | 52.29
333.15 K | 1031.5 | 42.29
338.15 K | 1028.5 | 34.38
343.15 K | 1025.6 | 28.48
348.15 K | 1022.6 | 23.88
353.15 K | 1019.7 | 20.63
358.15 K | 1016.7 | 17.35
363.15 K | 1013.9 | 15

CCCCn1cc[n+](C)c1.N#CN=C=[N-] [1-butyl-3-methylimidazolium dicyanamide]
[1]
Conditions | mass density [kg/m3] | viscosity [mPa·s]
283.15 K | 1070 | 58.35
288.15 K | 1066.7 | 45.91
293.15 K | 1063.4 | 36.83
298.15 K | 1060.2 | 30.08
303.15 K | 1057 | 24.94
308.15 K | 1053.8 | 20.98
313.15 K | 1050.6 | 17.86
318.15 K | 1047.5 | 15.38
323.15 K | 1044.4 | 13.38
328.15 K | 1041.3 | 11.74
333.15 K | 1038.2 | 10.38
338.15 K | 1035.2 | 9.251
343.15 K | 1032.1 | 8.298
348.15 K | 1029.1 | 7.488
353.15 K | 1026.1 | 6.794
358.15 K | 1023.2 | 6.196
363.15 K | 1020.3 | 5.677

CCCCn1cc[n+](C)c1.F[B-](F)(F)F [1-butyl-3-methylimidazolium tetrafluoroborate] + CCCC[n+]1ccn(C)c1.O=S(=O)([N-]S(=O)(=O)C(F)(F)F)C(F)(F)F
[2], x2 = 0
Conditions | mass density [kg/m3] | viscosity [mPa·s]
283.15 K | 1212.5 | 264.99
288.15 K | 1208.8 | 192.43
293.15 K | 1205.2 | 143.08
298.15 K | 1201.6 | 108.74
303.15 K | 1198 | 84.28
308.15 K | 1194.5 | 66.52
313.15 K | 1190.9 | 53.37
318.15 K | 1187.4 | 43.47
323.15 K | 1184 | 35.89
328.15 K | 1180.5 | 30.01
333.15 K | 1177 | 25.38
338.15 K | 1173.6 | 21.68
343.15 K | 1170.2 | 18.7
348.15 K | 1166.8 | 16.26
353.15 K | 1163.4 | 14.26
358.15 K | 1160.1 | 12.59
363.15 K | 1156.8 | 11.2

Reference: the NIST ThermoML archive (doi:10.1021/acs.jced.6b00178)
